The nature of data set [1]: Solubility in toluene. To be noted: for Solubility in Toluene: 1 g in 5 ml toluene, ultrasonic shaking 50° C. 10 min, then room temperature 30 min, filtered; for residue (solubility measurement in toluene): residue behind the printed solubility. It is filed as physicochemical. The method, then:
In a 20 ml test tube were placed 1 g of a naphthalocyanine compound and 5 ml of toluene. After the tube was tightly stoppered, the content was subjected to ultrasonic shaking at 50° C. for 10 min. Then, the tube was allowed to stand at room temperature for 30 min. and the content was filtered. The filtrate was concentrated to dryness. The solubility of the naphthalocyanine in toluene was calculated using the following equation. [formula] R1, R2, and R3 and R4 of naphthalocyanine compounds of the present invention can bond to 6 to 7 positions of all naphthalene nuclei of naphthalocyanine. Each of these groups can be a mixed group.

A short description of data set [2]: Near infrared absorption spectrum in toluene (largest absorption peak, absorptivity coefficient). It is filed as physicochemical. The text has this:
It is to be noted that the naphthalocyanine compounds according to the present invention are not restricted to the compounds shown in Table 2.
Near infrared absorption spectrum for toluene solution: […]

Where two headings read alike, the source gives them in different places.

For the substance “Indium tetra-tert, sec-mixed amylnaphthalocyanine [Example 4]”, the “Solubility in Toluene” value in data set [1] amounted to 7%. In addition, in data set [2], the “Absorptivity coefficient (log ε)” value is recorded as 5.09 and the “Wavelength at largest absorption peak” value turned out to be 805 nm.
Turning to “copper tetra-tert-amylnaphthalocyanine [Example 2]”, the “Solubility in Toluene” value in data set [1] is 7%. In data set [2], the “Wavelength at largest absorption peak” value came to 771 nm. The “Absorptivity coefficient (log ε)” value in data set [2] (listed as tert-amyl Cu) came out at 5.24.
For “tetra-6-tert-butylvanadylnaphthalocyanine [reference compound]”, the “Solubility in Toluene” value in data set [1] is reported as 2%. In addition, the “Solubility in organic solvents (in words)” value in data set [1] (organic solvents, compared with tert-butyl analogue or in general) is “much lower solubility in organic solvents”.
Consider “tetra-tert, sec-mixed amylvanadylnaphthalocyanine [Example 3]”, for which, in data set [1], the “Solubility in Toluene” value is 7% and the “residue (solubility measurement in toluene)” value was determined as 0.6 g. In addition, in data set [2], the “Absorptivity coefficient (log ε)” value was 5.32 and the “Wavelength at largest absorption peak” value worked out at 809 nm.
On the same counts, the results for “tetra-tert-amylvanadylnaphthalocyanine [Example 1]” are 6%, 0.6 g, 5.37 and 808 nm.
On to “tetra-tert-heptylvanadylnaphthalocyanine [Example 5]”, for which the “Solubility in Toluene” value in data set [1] worked out at 11%. Besides, in data set [2], the “Absorptivity coefficient (log ε)” value amounted to 5.27 and the “Wavelength at largest absorption peak” value amounted to 809 nm.

For the origin of these results see USRE34480E, “Naphthalocyanine compounds” (Yamamoto Kagaku Gosei Co., Ltd., priority 1983, dated 1993).
